IC50 data for one compound are collected here from PMC7153937, “Imipridone Anticancer Compounds Ectopically Activate the ClpP Protease and Represent a New Scaffold for Antibiotic Development” (Genetics, 2020).

As a reminder, the IC50 is the point on the concentration scale where inhibition reaches its midpoint. Low values mean inhibition by little substance, high ones a need for much substance.

For this experiment, the target named is T1, S. aureus ClpP (Staphylococcus aureus, UniProt Q2G036).
T1 construct: S. aureus ClpP expressed from the GAL1 promoter in S. cerevisiae
The experiment is described as follows: yeast surrogate genetic assay: ClpP-dependent growth inhibition vs. empty vector. In kind it is cell-based.

T1 sequence (Q2G036 whole entry): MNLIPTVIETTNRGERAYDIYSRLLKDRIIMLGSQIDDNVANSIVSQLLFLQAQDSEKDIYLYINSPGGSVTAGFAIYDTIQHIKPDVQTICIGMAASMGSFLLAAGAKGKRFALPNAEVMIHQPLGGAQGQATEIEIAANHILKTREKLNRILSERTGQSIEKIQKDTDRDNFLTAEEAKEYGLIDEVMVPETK

`O=C1C2=C(CCN(Cc3ccccc3)C2)N2CCN=C2N1Cc1ccc(C(F)(F)F)cc1` [ONC212] registered an IC50 of 5.4 µM.
